This note sets out measurements from US11066443B2 (Hoffmann-La Roche Inc., priority 2017, dated 2021).

In brackets after ≈: the same amount, converted by molar mass.

The test system of the first experiment is P. aeruginosa NCTC11454. Briefly: Antimicrobial susceptibility testing: 50% growth inhibitory concentration (IC50) determination. It is filed as cell-based. To be noted: Pseudomonas aeruginosa, Iso-Sensitest broth, OD 600 nm every 20 minutes over 16h, growth inhibition during logarithmic growth. As to the method:
The in vitro antimicrobial activity of the compounds was alternatively determined according to the following procedure: The assay used a 10-points Iso-Sensitest broth medium to measure quantitatively the in vitro activity of the compounds against P. aeruginosa NCTC11454. Stock compounds in DMSO were serially twofold diluted (e.g. range from 50 to 0.097 μM final concentration) in 384 wells microtiter plates and inoculated with 49 μl the bacterial suspension in Iso-Sensitest medium to have a final cell concentration of ˜5×10^(5) CFU/ml in a final volume/well of 50 ul/well. Microtiter plates were incubated at 35±2° C. Bacterial cell growth was determined with the measurement of optical density at λ=600 nm each 20 minutes over a time course of 16h. Growth inhibition was calculated during the logarithmic growth of the bacterial cells with determination of the concentration inhibiting 50% (IC50) and 90% (IC90) of the growth. Table 2 provides the 50% growth inhibitory concentrations (IC50) in micromoles per liter of the compounds of present invention obtained against P. aeruginosa NCTC11454.
Regarding `CN1C(=O)[C@H](CCCCN)NC(=O)[C@H](CCCN)NCc2ccccc2Sc2cc(Cl)ccc2CNC(=O)[C@@H]1Cc1c[nH]c2ccccc12` [Example 2, (12S,15S,18S)-15-(4-Amino-butyl)-18-(3-amino-propyl)-5-chloro-12-(1H-indol-3-ylmethyl)-13-methyl-2-thia-10,13,16,19-tetraaza-tricyclo[19.4.0.0*3,8*]pentacosa-1(21),3,5,7,22,24-hexaene-11,14,17-trione], the IC50 was > 50 µM.

For the compound `CN1C(=O)[C@H](CCCCN)NC(=O)[C@H](CCCN)NCc2cccnc2Sc2c(Cl)ccc(-c3cccc(CCN)c3)c2CNC(=O)[C@@H]1Cc1c[nH]c2ccccc12` [Example 54, (11S,14S,17S)-14-(4-Amino-butyl)-22-[3-(2-amino-ethyl)-phenyl]-11-(3-amino-propyl)-25-chloro-17-(1H-indol-3-ylmethyl)-16-methyl-2-thia-4,10,13,16,19-pentaaza-tricyclo[19.4.0.0*3,8*]pentacosa-1(25),3(8),4,6,21,23-hexaene-12,15,18-trione], the half-inhibitory concentration (IC50) came to 29.1 µM.

`CN1C(=O)[C@H](CCCCN)NC(=O)[C@H](CCCN)NCc2cccnc2Sc2c(Cl)ccc(-c3ccc(N4CCNCC4)cc3)c2CNC(=O)[C@@H]1Cc1c[nH]c2ccccc12` [Example 55, (11S,14S,17S)-14-(4-Amino-butyl)-11-(3-amino-propyl)-25-chloro-17-(1H-indol-3-ylmethyl)-16-methyl-22-(4-piperazin-1-yl-phenyl)-2-thia-4,10,13,16,19-pentaaza-tricyclo[19.4.0.0*3,8*]pentacosa-1(25),3(8),4,6,21,2-hexaene-12,15,18-trione] showed an IC50 of 26.6 µM.

The next experiment has as its system P. aeruginosa ATCC27853. Briefly: Antimicrobial susceptibility testing: microbroth minimum inhibitory concentration (MIC) determination. It is filed as cell-based. To be noted: Pseudomonas aeruginosa, CLSI microbroth dilution in CAMHB, read after 20 hours, lowest concentration inhibiting >=80% of growth. How it is done: The in vitro antimicrobial activity of the compounds was determined through microbroth minimum inhibitory concentration (MIC) methodology performed according to the Clinical and Laboratory Standard Institute guidelines (CLSI—M07-A9 Jan. 2012. Methods for Dilution Antimicrobial Susceptibility Tests for Bacteria That Grow Aerobically; Approved Standard—Ninth Edition, Clinical and Laboratory Standards Institue, Wayne/PA, US and the CLSI—M100-S24 Jan. 2014. Performance Standards for Antimicrobial Susceptibility Testing; Approved Standard—Fourth Informational Supplement, Clinical and Laboratory Standards Institue, Wayne/PA, US).
The compound stock solution was freshly prepared at 10× the required top concentration for the MIC determination, i.e. at 1280 mg/L, by reconstitution of the dry compound in 50:50 water:DMSO.
Polystyrene non-treated 96 wells microtiter plates were used for preparing panel containing compound serial twofold diluted at two times the final testing concentration (e.g. range from 64 to 0.06 μg/ml) in cation adjusted Mueller Hinton broth medium (CAMHB).
Inoculum was prepared by the “direct colony suspension method”. Colonies of P. aeruginosa ATCC27853 or clinical isolates were suspended in saline solution and adjusted to 0.5 McFarland, diluted 100 times in CAMHB broth and 50 μl added to each well (final concentration of cells ˜5×10^(5) CFU/ml and Final volume/well of 100 μl). Microtiter plates were sealed and incubated at 35±2° C.
MICs values were read after 20 hours of incubation and recorded as the lowest concentration of the antimicrobial that inhibits more or equal to 80% of growth of the organism as detected by the unaided eye and using a microtiter plate optical density reader (OD 600 nm).
Table 1 provides the minimum inhibitory concentration (MIC) in microgram per milliliter of the compounds of present invention obtained against the P. aeruginosa ATCC27853 (Table 1).
On the technique in general: Dilution methods test growth across graded concentrations, often in twofold steps.
On to `CN1C(=O)[C@H](CCCCN)NC(=O)[C@H](CCCN)NCc2ccccc2Sc2cc(Cl)ccc2CNC(=O)[C@@H]1Cc1c[nH]c2ccccc12` [Example 2, (12S,15S,18S)-15-(4-Amino-butyl)-18-(3-amino-propyl)-5-chloro-12-(1H-indol-3-ylmethyl)-13-methyl-2-thia-10,13,16,19-tetraaza-tricyclo[19.4.0.0*3,8*]pentacosa-1(21),3,5,7,22,24-hexaene-11,14,17-trione], for which the lowest concentration to inhibit growth (MIC) was 32 µg/mL (≈ 45.4 µM).

Turning to `CN1C(=O)[C@H](CCCCN)NC(=O)[C@H](CCCN)NCc2ccccc2Sc2c(Cl)cccc2CNC(=O)[C@@H]1Cc1c[nH]c2ccccc12` [Example 3, (12S,15S,18S)-15-(4-Amino-butyl)-18-(3-amino-propyl)-4-chloro-12-(1H-indol-3-ylmethyl)-13-methyl-2-thia-10,13,16,19-tetraaza-tricyclo[19.4.0.0*3,8*]pentacosa-1(21),3,5,7,22,24-hexaene-11,14,17-trione], the MIC was > 64 µg/mL.

As for `CN1C(=O)[C@H](CCCCN)NC(=O)[C@H](CCCN)NCc2ccccc2Sc2c(Cl)cc(C(F)(F)F)cc2CNC(=O)[C@@H]1Cc1c[nH]c2ccccc12` [Example 11, (12S,15S,18S)-15-(4-Amino-butyl)-18-(3-amino-propyl)-4-chloro-12-(1H-indol-3-ylmethyl)-13-methyl-6-trifluoromethyl-2-thia-10,13,16,19-tetraaza-tricyclo[19.4.0.0*3,8*]pentacosa-1(25),3,5,7,21,23-hexaene-11,14,17-trione], the minimal inhibitory concentration (MIC) turned out to be 16 µg/mL (≈ 20.7 µM).

In turn, `CN1C(=O)[C@H](CCCCN)NC(=O)[C@H](CCCN)NCc2cc(F)ccc2Sc2c(Cl)cc(Cl)cc2CNC(=O)[C@@H]1Cc1c[nH]c2ccccc12` [Example 12, (12S,15S,18S)-15-(4-Amino-butyl)-18-(3-amino-propyl)-4,6-dichloro-23-fluoro-12-(1H-indol-3-ylmethyl)-13-methyl-2-thia-10,13,16,19-tetraaza-tricyclo[19.4.0.0*3,8*]pentacosa-1(25),3,5,7,21,23-hexaene-11,14,17-trione] displayed a minimum inhibitory concentration (MIC) of 32 µg/mL (≈ 42.3 µM).

`CN1C(=O)[C@H](CCCCN)NC(=O)[C@H](CCCN)NCc2ccccc2Sc2c(cc(Cl)cc2C(F)(F)F)CNC(=O)[C@@H]1Cc1c[nH]c2ccccc12` [Example 13, (12S,15S,18S)-15-(4-Amino-butyl)-18-(3-amino-propyl)-6-chloro-12-(1H-indol-3-ylmethyl)-13-methyl-4-trifluoromethyl-2-thia-10,13,16,19-tetraaza-tricyclo[19.4.0.0*3,8*]pentacosa-1(25),3,5,7,21,23-hexaene-11,14,17-trione] yielded a minimum inhibitory concentration (MIC) of 16 µg/mL (≈ 20.7 µM).

The compound `Cc1cccc2c1Sc1ccccc1CN[C@@H](CCCN)C(=O)N[C@@H](CCCCN)C(=O)N(C)[C@@H](Cc1c(C)[nH]c3ccccc13)C(=O)NC2` [Example 16, (12S,15S,18S)-15-(4-Amino-butyl)-18-(3-amino-propyl)-4,13-dimethyl-12-(2-methyl-1H-indol-3-ylmethyl)-2-thia-10,13,16,19-tetraaza-tricyclo[19.4.0.0*3,8*]pentacosa-1(21),3,5,7,22,24-hexaene-11,14,17-trione] displayed an MIC of 32 µg/mL (≈ 45.8 µM).

The compound `Cc1[nH]c2ccccc2c1C[C@H]1C(=O)NCc2cc(Cl)cc(Cl)c2Sc2ccccc2CN[C@@H](CCCN)C(=O)N[C@@H](CCCCN)C(=O)N1C` [Example 17, (12S,15S,18S)-15-(4-Amino-butyl)-18-(3-amino-propyl)-4,6-dichloro-13-methyl-12-(2-methyl-1H-indol-3-ylmethyl)-2-thia-10,13,16,19-tetraaza-tricyclo[19.4.0.0*3,8*]pentacosa-1(21),3,5,7,22,24-hexaene-1,14,17-trione] came in with an MIC of 32 µg/mL (≈ 42.5 µM).

The compound `CCc1ccc2c(c1)CNC(=O)[C@H](Cc1c[nH]c3ccccc13)N(C)C(=O)[C@H](CCCCN)NC(=O)[C@H](CCCN)NCc1ccccc1S2` [Example 18, (12S,15S,18S)-15-(4-Amino-butyl)-18-(3-amino-propyl)-6-ethyl-12-(1H-indol-3-ylmethyl)-13-methyl-2-thia-10,13,16,19-tetraaza-tricyclo[19.4.0.0*3,8*]pentacosa-1(25),3,5,7,21,23-hexaene-11,14,17-trione] had an MIC of 32 µg/mL (≈ 45.8 µM).

The compound `CN1C(=O)[C@H](CCCCN)NC(=O)[C@H](CCCN)NCc2ccccc2Sc2ccc(-c3ccccc3)cc2CNC(=O)[C@@H]1Cc1c[nH]c2ccccc12` [Example 19, (12S,15S,18S)-15-(4-Amino-butyl)-18-(3-amino-propyl)-12-(1H-indol-3-ylmethyl)-13-methyl-6-phenyl-2-thia-10,13,16,19-tetraaza-tricyclo[19.4.0.0*3,8*]pentacosa-1(25),3,5,7,21,23-hexaene-11,14,17-trione] returned a minimal inhibitory concentration (MIC) of 32 µg/mL (≈ 42.9 µM).

With `CN1C(=O)[C@H](CCCCN)NC(=O)[C@H](CCCN)NCc2ccccc2Sc2ccc(C(C)(C)C)cc2CNC(=O)[C@@H]1Cc1c[nH]c2ccccc12` [Example 20, (12S,15S,18S)-15-(4-Amino-butyl)-18-(3-amino-propyl)-6-tert-butyl-12-(1H-indol-3-ylmethyl)-13-methyl-2-thia-10,13,16,19-tetraaza-tricyclo[19.4.0.0*3,8*]pentacosa-1(25),3,5,7,21,23-hexaene-11,14,17-trione], the MIC was 32 µg/mL (≈ 44.1 µM).

Regarding `CC(C)c1ccc2c(c1)CNC(=O)[C@H](Cc1c[nH]c3ccccc13)N(C)C(=O)[C@H](CCCCN)NC(=O)[C@H](CCCN)NCc1ccccc1S2` [Example 21, (12S,15S,18S)-15-(4-Amino-butyl)-18-(3-amino-propyl)-12-(1H-indol-3-ylmethyl)-6-isopropyl-13-methyl-2-thia-10,13,16,19-tetraaza-tricyclo[19.4.0.0*3,8*]pentacosa-1(25),3,5,7,21,23-hexaene-11,14,17-trione], 32 µg/mL (≈ 44.9 µM) was the least that counted as inhibitory (MIC).

The compound `CN1C(=O)[C@H](CCCCN)NC(=O)[C@H](CCCN)NCc2cccnc2Sc2c(cc(C(F)(F)F)cc2C(F)(F)F)CNC(=O)[C@@H]1Cc1c[nH]c2ccccc12` [Example 23, (11S,14S,17S)-14-(4-Amino-butyl)-11-(3-amino-propyl)-17-(1H-indol-3-ylmethyl)-16-methyl-23,25-bis-trifluoromethyl-2-thia-4,10,13,16,19-pentaaza-tricyclo[19.4.0.0*3,8*]pentacosa-1(25),3,5,7,21,23-hexaene-12,15,18-trione] came in with an MIC of 32 µg/mL (≈ 39.7 µM).

The compound `CN1C(=O)[C@H](CCCCN)NC(=O)[C@H](CCCN)NCc2cccnc2Sc2c(Cl)ccc(-c3ccccc3)c2CNC(=O)[C@@H]1Cc1c[nH]c2ccccc12` [Example 29, (11S,14S,17S)-14-(4-Amino-butyl)-11-(3-amino-propyl)-25-chloro-17-(1H-indol-3-ylmethyl)-16-methyl-22-phenyl-2-thia-4,10,13,16,19-pentaaza-tricyclo[19.4.0.0*3,8*]pentacosa-1(25),3(8),4,6,21,23-hexaene-12,15,18-trione] registered an MIC of 32 µg/mL (≈ 41 µM).

Broadly, the IC50 is the concentration that gives 50% inhibition. The term MIC denotes the smallest concentration in the dilution series that meets the test's criterion for growth inhibition. High values mean weaker potency, low ones greater potency.
